Results on 44 compounds are retold here after ChEMBL document CHEMBL4028802, “DILIrank: the largest reference drug list ranked by the risk for developing drug-induced liver injury in humans” (Drug Discov Today, 2016).

The species entered for data set [1] is Homo sapiens. In words: Liver toxicity in human assessed as induction of drug-induced liver injury by measuring severity class index.
The species entered for data set [2] is Homo sapiens. Kind of data set: Liver toxicity in human assessed as induction of drug-induced liver injury by measuring verified drug-induced liver injury concern status.
Throughout, for DILI severity class: key of the grades not given here.

With `C[C@H](CCC(=O)O)[C@H]1CC[C@H]2[C@@H]3[C@@H](O)C[C@@H]4C[C@H](O)CC[C@]4(C)[C@H]3CC[C@]12C` [URSODIOL], in the data set listed under Homo sapiens [1], the DILI_severity_class is 0. For the same compound, the DILI_Concern result in the data set filed under Homo sapiens [2] is “Ambiguous-Dili-Concern”.

In the case of `CC(C)[C@H](N)C(=O)OCCOCn1cnc2c(=O)[nH]c(N)nc21` [VALACYCLOVIR], the DILI_severity_class in the data set filed under Homo sapiens [1] is on record as 3. Besides, the DILI_Concern result in the data set filed under Homo sapiens [2] is “Less-Dili-Concern”.

Turning to `Cc1onc(-c2ccccc2)c1-c1ccc(S(N)(=O)=O)cc1` [VALDECOXIB], the DILI_severity_class in the data set listed under Homo sapiens [1] is 3. Further, the DILI_Concern entry in the data set listed under Homo sapiens [2] is “Less-Dili-Concern”.

Consider `CC(C)[C@H](N)C(=O)OCC(CO)OCn1cnc2c(=O)nc(N)[nH]c21` (stereo partly drawn) [VALGANCICLOVIR], for which, in the data set filed under Homo sapiens [1], the DILI_severity_class is 3. Further, the DILI_Concern result in the data set listed under Homo sapiens [2] is recorded as “Ambiguous-Dili-Concern”.

For the compound `CN[C@H](CC(C)C)C(=O)N[C@H]1C(=O)N[C@@H](CC(N)=O)C(=O)N[C@H]2C(=O)N[C@H]3C(=O)N[C@H](C(=O)N[C@H](C(=O)O)c4cc(O)cc(O)c4-c4cc3ccc4O)[C@H](O)c3ccc(c(Cl)c3)Oc3cc2cc(c3O[C@@H]2O[C@H](CO)[C@@H](O)[C@H](O)[C@H]2O[C@H]2C[C@](C)(N)[C@H](O)[C@H](C)O2)Oc2ccc(cc2Cl)[C@H]1O` [VANCOMYCIN], the DILI_severity_class in the data set filed under Homo sapiens [1] came to 0. Besides, the DILI_Concern result in the data set filed under Homo sapiens [2] is “Less-Dili-Concern”.

Regarding `c1cnc2cc3c(cc2n1)[C@@H]1CNC[C@H]3C1` [VARENICLINE], the DILI_severity_class in the data set filed under Homo sapiens [1] was determined as 2. Also, in the data set listed under Homo sapiens [2], the DILI_Concern entry is recorded as “Less-Dili-Concern”.

With `NC(=O)CC[C@@H]1NC(=O)[C@H](Cc2ccccc2)NC(=O)[C@H](Cc2ccc(O)cc2)NC(=O)[C@@H](N)CSSC[C@@H](C(=O)N2CCC[C@H]2C(=O)N[C@@H](CCCN=C(N)N)C(=O)NCC(N)=O)NC(=O)[C@H](CC(N)=O)NC1=O` [VASOPRESSIN], in the data set filed under Homo sapiens [1], the DILI_severity_class is on record as 0. Further, the DILI_Concern entry in the data set filed under Homo sapiens [2] is on record as “No-Dili-Concern”.

Turning to `CC(=O)O[C@H]1C[C@@H]2CC[C@@H]3[C@H](CC[C@@]4(C)[C@H]3C[C@H]([N+]3(C)CCCCC3)[C@@H]4OC(C)=O)[C@@]2(C)C[C@@H]1N1CCCCC1` [VECURONIUM], the DILI_severity_class in the data set listed under Homo sapiens [1] is 0. In addition, the DILI_Concern entry in the data set listed under Homo sapiens [2] is recorded as “No-Dili-Concern”.

For the compound `COc1ccc(C(CN(C)C)C2(O)CCCCC2)cc1` (stereo not drawn) [VENLAFAXINE], in the data set filed under Homo sapiens [1], the DILI_severity_class is 7. The DILI_Concern entry in the data set filed under Homo sapiens [2] is reported as “Less-Dili-Concern”.

For `C=CC(N)CCC(=O)O` (stereo not drawn) [VIGABATRIN], the DILI_severity_class in the data set listed under Homo sapiens [1] was 2. Moreover, in the data set listed under Homo sapiens [2], the DILI_Concern result is given as “Ambiguous-Dili-Concern”.

With `CC[C@]1(O)C[C@@H]2CN(CCc3c([nH]c4ccccc34)[C@@](C(=O)OC)(c3cc4c(cc3OC)N(C)[C@H]3[C@@](O)(C(=O)OC)[C@H](OC(C)=O)[C@]5(CC)C=CCN6CC[C@]43[C@@H]65)C2)C1` [VINBLASTINE], the DILI_severity_class in the data set filed under Homo sapiens [1] worked out at 0. Besides, the DILI_Concern entry in the data set listed under Homo sapiens [2] is on record as “No-Dili-Concern”.

`CC[C@]1(O)C[C@H]2CN(CCc3c([nH]c4ccccc34)[C@@](C(=O)OC)(c3cc4c(cc3OC)N(C=O)[C@H]3[C@@](O)(C(=O)OC)[C@H](OC(C)=O)[C@]5(CC)C=CCN6CC[C@]43[C@@H]65)C2)C1` [VINCRISTINE]: in the data set listed under Homo sapiens [1], the DILI_severity_class was 8. For the same compound, in the data set filed under Homo sapiens [2], the DILI_Concern entry was “Less-Dili-Concern”.

`CCC1=C[C@@H]2CN(C1)Cc1c([nH]c3ccccc13)[C@@](C(=O)OC)(c1cc3c(cc1OC)N(C)[C@H]1[C@@](O)(C(=O)OC)[C@H](OC(C)=O)[C@]4(CC)C=CCN5CC[C@]31[C@@H]54)C2` [VINORELBINE]: the DILI_severity_class in the data set listed under Homo sapiens [1] came to 3. Further, the DILI_Concern result in the data set filed under Homo sapiens [2] is “Ambiguous-Dili-Concern”.

On to `C[C@@H](c1ncncc1F)[C@](O)(Cn1cncn1)c1ccc(F)cc1F` [VORICONAZOLE], for which the DILI_severity_class in the data set filed under Homo sapiens [1] is 8. In addition, in the data set filed under Homo sapiens [2], the DILI_Concern result is on record as “Most-Dili-Concern”.

For `O=C(CCCCCCC(=O)Nc1ccccc1)NO` [VORINOSTAT], in the data set listed under Homo sapiens [1], the DILI_severity_class turned out to be 0. Moreover, the DILI_Concern result in the data set filed under Homo sapiens [2] was “No-Dili-Concern”.

For the compound `CC(=O)CC(c1ccccc1)c1c(O)c2ccccc2oc1=O` (stereo not drawn) [WARFARIN], the DILI_severity_class in the data set filed under Homo sapiens [1] came to 5. In addition, the DILI_Concern result in the data set filed under Homo sapiens [2] is on record as “Less-Dili-Concern”.

In the case of `CCOC(Nc1ccc(C(=O)O)cc1)C(=O)c1ccc(-c2ccccc2)cc1` (stereo not drawn) [XENAZOIC ACID], the DILI_severity_class in the data set filed under Homo sapiens [1] is 8. In addition, the DILI_Concern result in the data set filed under Homo sapiens [2] is on record as “Most-Dili-Concern”.

Turning to `CCOC(=O)CN[C@@H](C(=O)N1CC[C@H]1C(=O)NCc1ccc(/C(N)=N\O)cc1)C1CCCCC1` [XIMELAGATRAN], in the data set filed under Homo sapiens [1], the DILI_severity_class is 8. Moreover, the DILI_Concern entry in the data set listed under Homo sapiens [2] is given as “Most-Dili-Concern”.

Consider `COc1cc(C(=O)NS(=O)(=O)c2ccccc2C)ccc1Cc1cn(C)c2ccc(NC(=O)OC3CCCC3)cc12` [ZAFIRLUKAST], for which the DILI_severity_class in the data set filed under Homo sapiens [1] worked out at 8. The DILI_Concern result in the data set filed under Homo sapiens [2] is listed as “Most-Dili-Concern”.

`CCN(C(C)=O)c1cccc(-c2ccnc3c(C#N)cnn23)c1` [ZALEPLON]: the DILI_severity_class in the data set listed under Homo sapiens [1] came out at 0. Besides, the DILI_Concern entry in the data set filed under Homo sapiens [2] is given as “No-Dili-Concern”.

As to `Cc1cn([C@H]2C[C@H](N=[N+]=[N-])[C@@H](CO)O2)c(=O)[nH]c1=O` [ZIDOVUDINE], the DILI_severity_class in the data set filed under Homo sapiens [1] is listed as 8. Further, in the data set listed under Homo sapiens [2], the DILI_Concern entry was “Most-Dili-Concern”.

For `CC(c1cc2ccccc2s1)N(O)C(N)=O` (stereo not drawn) [ZILEUTON], the DILI_severity_class in the data set filed under Homo sapiens [1] came out at 5. In the data set filed under Homo sapiens [2], the DILI_Concern result was “Most-Dili-Concern”.

Turning to `CN(C)C/C=C(/c1ccc(Br)cc1)c1cccnc1` [ZIMELDINE], in the data set filed under Homo sapiens [1], the DILI_severity_class was 8. The DILI_Concern entry in the data set filed under Homo sapiens [2] is reported as “Most-Dili-Concern”.

On to `O=C1Cc2cc(CCN3CCN(c4nsc5ccccc45)CC3)c(Cl)cc2N1` [ZIPRASIDONE], for which the DILI_severity_class in the data set filed under Homo sapiens [1] was 3. Besides, in the data set filed under Homo sapiens [2], the DILI_Concern entry is listed as “Less-Dili-Concern”.

Turning to `O.O=P(O)(O)C(O)(Cn1ccnc1)P(=O)(O)O` [ZOLEDRONIC ACID], in the data set filed under Homo sapiens [1], the DILI_severity_class worked out at 0. Moreover, the DILI_Concern entry in the data set filed under Homo sapiens [2] is recorded as “Less-Dili-Concern”.

As to `CN(C)CCc1c[nH]c2ccc(C[C@H]3COC(=O)N3)cc12` [ZOLMITRIPTAN], in the data set listed under Homo sapiens [1], the DILI_severity_class amounted to 3. In addition, in the data set listed under Homo sapiens [2], the DILI_Concern entry is given as “Ambiguous-Dili-Concern”.

Take `Cc1ccc(-c2nc3ccc(C)cn3c2CC(=O)N(C)C)cc1` [ZOLPIDEM]: the DILI_severity_class in the data set listed under Homo sapiens [1] turned out to be 7. In addition, the DILI_Concern entry in the data set listed under Homo sapiens [2] was “Ambiguous-Dili-Concern”.

As to `NS(=O)(=O)Cc1noc2ccccc12` [ZONISAMIDE], the DILI_severity_class in the data set filed under Homo sapiens [1] is on record as 2. Further, in the data set listed under Homo sapiens [2], the DILI_Concern result is “Less-Dili-Concern”.

Take BIVALIRUDIN: the DILI_severity_class in the data set filed under Homo sapiens [1] worked out at 0. For the same compound, the DILI_Concern result in the data set listed under Homo sapiens [2] is reported as “No-Dili-Concern”.

Turning to BLEOMYCIN, the DILI_severity_class in the data set filed under Homo sapiens [1] is recorded as 3. Besides, in the data set filed under Homo sapiens [2], the DILI_Concern entry is “Ambiguous-Dili-Concern”.

Take CUPRIC CHLORIDE: the DILI_severity_class in the data set listed under Homo sapiens [1] was found to be 0. Further, in the data set filed under Homo sapiens [2], the DILI_Concern entry is “No-Dili-Concern”.

In the case of DALTEPARIN SODIUM, the DILI_severity_class in the data set filed under Homo sapiens [1] is on record as 3. The DILI_Concern result in the data set filed under Homo sapiens [2] is “Less-Dili-Concern”.

On to GALLIUM NITRATE, for which the DILI_severity_class in the data set listed under Homo sapiens [1] was found to be 3. Also, the DILI_Concern entry in the data set filed under Homo sapiens [2] is “Ambiguous-Dili-Concern”.

“H-SEEPPISLDLTFHLLREVLEMARAEQLAQQAHSNRKMLEII-OH”: the DILI_severity_class in the data set listed under Homo sapiens [1] is listed as 0. Further, the DILI_Concern entry in the data set listed under Homo sapiens [2] is reported as “No-Dili-Concern”.

With IVERMECTIN, the DILI_severity_class in the data set listed under Homo sapiens [1] was 3. Moreover, the DILI_Concern result in the data set filed under Homo sapiens [2] is “Less-Dili-Concern”.

As to LANTHANUM CARBONATE, the DILI_severity_class in the data set listed under Homo sapiens [1] was found to be 0. For the same compound, in the data set listed under Homo sapiens [2], the DILI_Concern result is “No-Dili-Concern”.

Consider NYSTATIN, for which, in the data set listed under Homo sapiens [1], the DILI_severity_class is listed as 0. The DILI_Concern entry in the data set filed under Homo sapiens [2] is on record as “No-Dili-Concern”.

On to POLYMYXIN B SULFATE, for which the DILI_severity_class in the data set filed under Homo sapiens [1] amounted to 0. For the same compound, in the data set listed under Homo sapiens [2], the DILI_Concern result was “No-Dili-Concern”.

With SECRETIN, in the data set filed under Homo sapiens [1], the DILI_severity_class turned out to be 0. The DILI_Concern entry in the data set filed under Homo sapiens [2] is “No-Dili-Concern”.

Take SEVELAMER: the DILI_severity_class in the data set listed under Homo sapiens [1] was 0. For the same compound, the DILI_Concern result in the data set filed under Homo sapiens [2] is “No-Dili-Concern”.

For the compound SIMETHICONE, the DILI_severity_class in the data set listed under Homo sapiens [1] was 0. Besides, in the data set filed under Homo sapiens [2], the DILI_Concern result is given as “No-Dili-Concern”.

Turning to VERTEPORFIN, the DILI_severity_class in the data set listed under Homo sapiens [1] came out at 3. Moreover, the DILI_Concern entry in the data set listed under Homo sapiens [2] was “Ambiguous-Dili-Concern”.

In the case of VITAMIN E, in the data set listed under Homo sapiens [1], the DILI_severity_class amounted to 0. Moreover, the DILI_Concern result in the data set listed under Homo sapiens [2] is given as “No-Dili-Concern”.

With enfuvirtide, the DILI_severity_class in the data set filed under Homo sapiens [1] is recorded as 3. Further, the DILI_Concern result in the data set filed under Homo sapiens [2] is on record as “Ambiguous-Dili-Concern”.
